In one series the test system is HeLaLuc705 cells. In words: SSO-mediated luciferase induction assay. Format: cell-based. Particulars: for EC50: luciferase induction by SSO623. On the procedure: FIG. 1B-1E. Effects with SSOs. FIG. 1B Structure of UNC2383. […] The cells were then rinsed and incubation continued for an additional 4 h in DMEM+10% FBS. Cells were rinsed twice in PBS and luciferase activity (RLU) and cell protein determined. The larger round symbol indicates the MM oligonucleotide. Means+/−SE. N=3. […] The cells were further incubated and then luciferase and protein determined. The total time of incubation in each case was 6 h. […] Means+/−SE. N=3.
(§1) FIG. 3. Effect and Cytotoxicity of Analogs. The effect of selected UNC2383 analogs on luciferase induction by SSO623 was measured as described in Methods and in the legend of FIG. 1B-1E. Cytotoxicity was measured using the Alamar Blue method as in FIG. 1E. MM10 is the effect of 10 uM compound in the presence of a mismatched oligonucleotide. Means and SE. N=3.
HeLaLuc705 cells are stably transfected with a firefly luciferase reporter whose coding sequence is interrupted by an abnormal intron. […] NIH-3T3-MDR cells are stably transfected with a human MDR1 cDNA coding for the P-glycoprotein (Pgp). We have described the maintenance and use of these cell lines elsewhere. (18, 20)
SSO-mediated luciferase induction assays were conducted as previously described. (18) In short, HeLaLuc705 cells in 24 well culture plates were preincubated with SSO623 followed by brief treatment with the small molecule; at intervals thereafter, luciferase activity and protein content were determined. […] (30)

A short description of series [1]: Alamar Blue cytotoxicity assay. Format: cell-based. The note with it: human, HeLa Luc705 cells; Alamar Blue cytotoxicity; read-out: TC50. On the procedure: (§2) FIG. 1B-1E. Effects with SSOs. FIG. 1B Structure of UNC2383. FIG. 1C Compound 2383 enhances SSO effects. Cells were incubated in 24-well plates with 100 nM SSO623 or its mismatched control (MM) for 16 h in DMEM+10% FBS, rinsed and then treated with various concentrations of 2383 for 2 h. The cells were then rinsed and incubation continued for an additional 4 h in DMEM+10% FBS. Cells were rinsed twice in PBS and luciferase activity (RLU) and cell protein determined. The larger round symbol indicates the MM oligonucleotide. Means+/−SE. N=3. FIG. 1D Kinetics of 2383 action. Cells were preloaded with 100 nM SSO623 and then exposed to 2383 for various periods after which the compound was removed. The cells were further incubated and then luciferase and protein determined. The total time of incubation in each case was 6 h. FIG. 1E Cytotoxicity of 2383. HeLa Luc705 or NIH-3T3-MDR cells were exposed to 2383 as in (FIG. 1C) then incubated for 24 h in DMEM plus 10% FBS and tested using the Alamar Blue cytotoxicity assay. Means+/−SE. N=3.
as §1
(§3) SSO-mediated luciferase induction assays were conducted as previously described. (18) In short, HeLaLuc705 cells in 24 well culture plates were preincubated with SSO623 followed by brief treatment with the small molecule; at intervals thereafter, luciferase activity and protein content were determined. ASO mediated inhibition of MDR1 gene expression utilized an Alexa 488 labeled anti-P-glycoprotein antibody and flow cytometry to measure Pgp expression as described. (20) The anti-MDR1 sequence is 5′-CCATCccgacctcgcGCTCC-3′(SEQ ID NO: 5) (all phosphorothiopate with 2-O-Me residues in capitals). Cytotoxicity of 2383 was monitored using the Alamar Blue assay. (30)

Another series relates to HeLa Luc705 cells. In words: Alamar Blue cytotoxicity assay. Format: cell-based. The note with it: ratio of cytotoxicity TC50 to luciferase induction EC50. On the procedure:
as §2, §1, §3
A general note: The colour change of resazurin is a common sign of viable cells or microbes.

The subject of series [2] is CFTR channel activity in human bronchial epithelial cells (HBEC) from a 3849+10 kbC-T homozygous patient. In words: Ussing chamber analysis of CFTR function in 3849+10 kbC-T HBEC. It is filed as cell-based. Particulars: SSO A 1 uM overnight, OEC 4 uM 2 hs luminal or serosal, 72 h, approved drugs in parallel. From the text:
FIG. 11. CFTR activity restored to CF splicing mutation 3849+10 kbC-T using SSOs. SSOs were delivered in vitro by electroporation (˜100% efficiency), CF primary cells were differentiated on permeable supports and tested. Panel A. PCR analysis. The lower band is the correctly spliced CFTR. Panel B. Functional correction by Ussing chamber analysis.
FIG. 12. OEC Mediated Delivery of a SSO in 3849+10 kbC-T HBEC. Well-differentiated human bronchial epithelial cells (HBEC) derived from a 3849+10 kbC-T homozygous patient were incubated with corrective (LNA) SSO A from FIG. 1 (1 uM, overnight). Cells were then incubated with OEC UNC2383 in the luminal or serosal bath (4 uM, 2 hs). Both the SSO and OEC were added in cell growing medium. Seventy two hour later, HBEC were analyzed in Ussing chamber for CFTR function. Orkambi® was tested in parallel inserts.
Results: In vitro studies were performed in well-differentiated HBEC cells derived from a homozygous 3849+10 kbC→T CF patient (CF HBEC) treated with one dose of a specific SSO (1 uM, 12 hs) followed by one dose of OEC (apical or basolateral delivery, 2-4 uM, 2-3 hs). A significant increase of forskolin-stimulated CFTR activity in Ussing chamber analyses was observed 24-96 hs after SSO+OEC treatment compared to SSO alone treatment or vehicle. OEC was efficacious delivered apically as well as basolaterally. Transepithelial resistance and microscopy tests were implemented to monitor cytotoxicity, which was negligible for both SSO and OEC (FIG. 12). In vivo studies were performed in a transgenic mouse model that has a SSO-inducible EGFP reporter.
SSOs (100 nM) were introduced in airway epithelial cells derived from a 3849+10 kbC-T homozygous CF patient in suspension by electroporation using the Neon system, program A4. Cells were differentiated for 2 weeks in culture on human collagen-coated permeable supports (Millipore) before being tested in Ussing chambers following methods described in Kreda et al. […] “Characterization of Wild-Type and ΔF508 Cystic Fibrosis Transmembrane Regulator in Human Respiratory Epithelia” Mol. Biol. Cell 16(5):2154-2167 (100 uM Amiloride, Amil; 10 uM Forskolin, Fsk; 20 uM CFTR inhibitor 172). After Ussing chamber analysis, cells were lysed and assayed for RT-PCR as described in Wang et al 2017 (FIG. 11).
(SEQ ID NO:2), C (5′+G*mA*mG*mU*+C*mU*mU**mU*mA*+C*mU*mC*mA*mC*mC*+A*mU*mU*mU) (SEQ ID NO:3) (Locked Nucleic Acid (LNA)=+, PS=*, 2′OMe=m). In SSO sequences A, B, and C the underlined bases indicate oligo bases that match up to the bases in the mutated splice site in the 3849+10 kb C-T CFTR splicing mutation. MM623 or SSO623 sequences are described herein. […]

The conditions of series [3]: mouse, in vivo.
Procedure: All animal procedures were conducted in compliance with guidelines of the UNC Laboratory Animal Medicine Department and with federal guidelines. […] (20, 32) EGFP654 mice were administered 35 mg/kg of SSO623 or mismatched oligonucleotide in buffer by intraperitoneal injection on two consecutive days. One day later, mice received either 5 mg/kg of UNC2383 in a 1:1 DMSO/PEG400 solution or only the diluent, via intraperitoneal injection. […] After 24 h, the second cohort was euthanized and tissue and cardiac blood samples were obtained. […] (31) Blood samples were analyzed by the UNC Animal Clinical Chemistry Core facility.
Series [4] relates to P-glycoprotein (Pgp) expression in NIH-3T3-MDR cells. In words: ASO mediated inhibition of MDR1 gene expression (Pgp by flow cytometry). Format: cell-based, mouse. Particulars: 100 nM anti-MDR1 ASO 16 h; 10 μM UNC2383 2 h where used; 48 h. On the procedure:
FIG. 4. Effects with ASOs. Reduction of Pgp expression. NIH 3T3-MDR cells were incubated with 100 nM anti-MDR1 ASO or a mismatched (MM) control for 16 h in DMEM+1% FBS. Cells were rinsed and then treated with 10 μM UNC2383 for 2 h. The compound was removed, and the cells further incubated for 48 h. Expression of Pgp on the cell surface was determined by treating cells with Alexa 488 labeled anti-Pgp monoclonal antibody and binding quantitated by flow cytometry (PE(A)=units of fluorescence intensity). Treatment with ASO complexed with Lipofectamine 2000 (L2K) was a positive control. Y axis, cell counts; X axis, Alexa 488 fluorescence. […] Means±SE, N=3.
We also tested UNC2383 for its ability to affect ASOs rather than SSOs. The ASO was designed to inhibit expression of the MDR1 gene and its product the P-glycoprotein multidrug transporter. […] Cell surface expression of P-glycoprotein was monitored using an Alexa 488 labeled anti-Pgp monoclonal antibody and flow cytometry. […]
SSO-mediated luciferase induction assays were conducted as previously described. (18) In short, HeLaLuc705 cells in 24 well culture plates were preincubated with SSO623 followed by brief treatment with the small molecule; at intervals thereafter, luciferase activity and protein content were determined. […] Cytotoxicity of 2383 was monitored using the Alamar Blue assay. […]
For orientation: In flow cytometry, cells or beads pass a laser one at a time.

d = 2'-deoxy (DNA); m = 2'-O-methyl

As usually defined, the EC50 is the concentration needed to bring the measured effect to its halfway point. Higher therefore signals weaker potency. With `O=C(Nc1nc2ccccc2n1CCN1CCCC1)c1cc2cc(Br)ccc2o1` [UNC4251], the EC50 in the series on HeLaLuc705 cells was found to be 2 µM. In series [1], the CC50 at 2 h is 7 µM. Also, the TC50/EC50 in the series on HeLa Luc705 cells was 3.5.

`CC(C)(C)c1cc(C(C)(C)C)c(NC(=O)c2c[nH]c3ccccc3c2=O)cc1O` [Ivactafor®/Kalydeco®, reference compound]: the “CFTR channel activity / functional correction” value in series [2] was “minimal effect”; in series [2] (listed as Kalydeco®), “no effect”.

For the molecule `COc1ccc2oc(C(=O)Nc3nc4ccccc4n3CCN3CCCC3)cc2c1` [UNC4253], in the series on HeLaLuc705 cells, the EC50 worked out at 11 µM. Also, the CC50 at 2 h in series [1] worked out at 48 µM. Moreover, the TC50/EC50 with HeLa Luc705 cells is listed as 4.4.

Turning to “SSO623: 2′-O Me phosphorothioate splice switching oligonucleotide 5′-GTTATTCTTTAGAATGGTGC-3′ (SEQ ID NO: 4) (all 2'-O-methyl, all phosphorothioate, T or U not given here)”, in series [3], the ALT was 51 +/− 8 U/L, the AST was 65 +/− 23 U/L, the BUN was determined as 23 ± 2 mg/dL and the Hb came out at 13.8 ± 0.8 g/dL. In addition, the Platelets in series [3] was 824 +/− 266 × 10^3/ul.

On to `CCN(CC)CCCC(C)Nc1ccnc2cc(Cl)ccc12` (stereo not drawn) [Chloroquine, chloroquine, reference compound], for which, in the series with HeLaLuc705 cells (FIG. 9C, 2 h, chloroquine also 16 h), the “SSO-mediated luciferase induction, comparison with chloroquine” value is “little effect”.

In the series with HeLaLuc705 cells, `Cc1ccc2c(c1)nc(NC(=O)c1cc3cc(Cl)ccc3o1)n2CCN1CCCC1` [UNC4426] registered an EC50 of 3.5 µM. The CC50 at 2 h in series [1] is 13 µM. Besides, the TC50/EC50 in the series on HeLa Luc705 cells came out at 3.7.

As for “ASO: anti-MDR1 antisense oligonucleotide 5′-CCATCccgacctcgcGCTCC-3′ (SEQ ID NO: 5) (antisense CCATCCCGACCTCGCGCTCC; sugars from the 5' end m5 d10 m5, all phosphorothioate, methylation of C and T or U not given here) [reference compound]”, the “Pgp expression on the cell surface” value in series [4] was “virtually no effect”.

`O=C(Nc1nc2cc(Cl)ccc2n1CCN1CCCC1)c1cc2cc(Cl)ccc2o1` [UNC4425] yielded a concentration giving a half-maximal response (EC50) in the series on HeLaLuc705 cells of 6 µM. Besides, the CC50 at 2 h in series [1] was determined as 12.5 µM. The TC50/EC50 in the series with HeLa Luc705 cells was 2.1.

Values taken from patent US11040056B2, “Benzimidazoles that enhance the activity of oligonucleotides” (The University of North Carolina at Chapel Hill, priority 2018, dated 2021).
